In brackets after ≈: the same amount, converted by molar mass. Like-named read-outs stand apart in the source and are kept apart here. Bridge positions count the residues as written; N and C are the ends. Square brackets hold non-standard residues; d marks the D form. Peptide text beside a SMILES is read from it. * marks the point of attachment. Ileψ(thiazoline)Cys = CC[C@H](C)[C@H](N)C1=N[C@H](C(=O)*)CS1; dOrn = NCCC[C@@H](N)C(=O)O; X1 = CC[C@H](C)CCCCC(=O)*; Dab = NCC[C@H](N)C(=O)O Some results are limits rather than exact numbers.

The conditions of series [1]: pH 7; cited from earlier work.
In series [2] the test system is C. pseudotuberculosis ΔlysX complement.
Series [3] concerns C. pseudotuberculosis wild-type.
The next series deals with Corynebacterium spp. The conditions noted are these: cited from earlier work.

As for `CC1(C)S[C@@H]2[C@H](NC(=O)[C@H](N)c3ccccc3)C(=O)N2[C@H]1C(=O)O` [Ampicillin], in series [1], the Charge is 0.
In the case of `CN[C@@H]1[C@@H](O[C@H]2O[C@H](CO)[C@@H](N)[C@H](O)[C@H]2O)OC2C[C@@H](N)[C@@H](O[C@H]3[C@H](O)[C@@H](O)[C@H](N)C[C@@H]3N)OC2[C@@H]1O` (some centres unmarked) [Apramycin], the Charge result in series [1] was “+5”. For the same compound, in series [2], the “MIC ΔlysX complement” value was found to be 20 µg/mL (≈ 37.1 µM). Moreover, the MIC wt in series [3] worked out at 20 µg/mL (≈ 37.1 µM).
For `CC1(C)S[C@@H]2[C@H](NC(=O)[C@H](NC(=O)N3CCNC3=O)c3ccccc3)C(=O)N2[C@H]1C(=O)O` [Azlocillin], in series [1], the Charge is given as −1. The compound further registered an MIC wt in series [3] of 0.156 µg/mL (≈ 0.338 µM).
As to `CC[C@H](C)[C@H](N)C1=N[C@H](C(=O)N[C@@H](CC(C)C)C(=O)N[C@H](CCC(=O)O)C(=O)N[C@H](C(=O)N[C@H]2CCCCNC(=O)[C@H](CC(N)=O)NC(=O)[C@@H](CC(=O)O)NC(=O)[C@H](Cc3cnc[nH]3)NC(=O)[C@@H](Cc3ccccc3)NC(=O)[C@H]([C@@H](C)CC)NC(=O)[C@@H](CCCN)NC2=O)[C@@H](C)CC)CS1` [Bacitracin] ({Ileψ(thiazoline)Cys}-L[dE]IK[dOrn]I[dF]H[dD]N; lactam 4-C (inferred); N-terminus assumed), the Charge in series [1] was 0. In series [3] (24 h), this compound registered an MIC wt of 6.4 µg/mL (≈ 4.5 µM).
Regarding `CO/N=C(\C(=O)N[C@@H]1C(=O)N2C(C(=O)O)=C(CSc3nc(=O)c(=O)[nH]n3C)CS[C@H]12)c1csc(N)n1` [Ceftriaxone], the Charge in series [1] is reported as −2. Further, the MIC wt in series [3] came to 0.625 µg/mL (≈ 1.13 µM).
For `O=C(N[C@H](CO)[C@H](O)c1ccc([N+](=O)[O-])cc1)C(Cl)Cl` [Chloramphenicol], the Charge in series [1] was 0. The compound further registered an MIC wt in series [3] of 10 µg/mL (≈ 30.9 µM).
Regarding `CC[C@H]1OC(=O)[C@H](C)[C@@H](O[C@H]2C[C@@](C)(OC)[C@@H](O)[C@H](C)O2)[C@H](C)[C@@H](O[C@@H]2O[C@H](C)C[C@H](N(C)C)[C@H]2O)[C@](C)(O)C[C@@H](C)C(=O)[C@H](C)[C@@H](O)[C@]1(C)O` [Erythromycin], the Charge result in series [1] is given as “+1”. Further, the MIC wt in series [3] turned out to be 0.156 µg/mL (≈ 0.213 µM).
With `CNC(C)C1CCC(N)C(OC2C(N)CC(N)C(OC3OCC(C)(O)C(NC)C3O)C2O)O1` (centres unmarked) [Gentamicin], the Charge result in series [1] is “+5”. The “MIC ΔlysX complement” value in series [2] amounted to 5 µg/mL (≈ 10.5 µM). In addition, the MIC wt in series [3] amounted to 5 µg/mL (≈ 10.5 µM). Also, in the series on Corynebacterium spp., the susceptibility breakpoint was 4 µg/mL.
Turning to `NC[C@H]1O[C@H](O[C@H]2[C@H](O)[C@@H](O[C@H]3O[C@H](CO)[C@@H](O)[C@H](N)[C@H]3O)[C@H](N)C[C@@H]2N)[C@H](O)[C@@H](O)[C@@H]1O` [Kanamycin], the Charge entry in series [1] is reported as “+4”. Further, the “MIC ΔlysX complement” value in series [2] is recorded as 10 µg/mL (≈ 20.6 µM). Besides, the MIC wt in series [3] was determined as 10 µg/mL (≈ 20.6 µM).
On to `CC[C@H](C)[C@H](NC(=O)CN)C(=O)NCC(=O)N[C@@H](C)C(=O)N[C@H](C(=O)N[C@@H](CC(C)C)C(=O)N[C@@H](CCCCN)C(=O)N[C@H](C(=O)N[C@@H](CC(C)C)C(=O)N[C@H](C(=O)N[C@H](C(=O)NCC(=O)N[C@@H](CC(C)C)C(=O)N1CCC[C@H]1C(=O)N[C@@H](C)C(=O)N[C@@H](CC(C)C)C(=O)N[C@H](C(=O)N[C@@H](CO)C(=O)N[C@@H](Cc1c[nH]c2ccccc12)C(=O)N[C@H](C(=O)N[C@@H](CCCCN)C(=O)N[C@@H](CCCNC(=N)N)C(=O)N[C@@H](CCCCN)C(=O)N[C@@H](CCCNC(=N)N)C(=O)N[C@@H](CCC(N)=O)C(=O)N[C@@H](CCC(N)=O)C(N)=O)[C@@H](C)CC)[C@@H](C)CC)[C@@H](C)O)[C@@H](C)O)C(C)C)C(C)C` [Melittin], for which, in series [1], the Charge entry was “+5”. For the same compound, the “MIC ΔlysX complement” value in series [2] (24 h) is recorded as more than 40 µg/mL. The same compound displayed an MIC wt in series [3] (24 h) of more than 40 µg/mL.
Take `Cc1onc(-c2ccccc2)c1C(=O)N[C@@H]1C(=O)N2[C@@H]1SC(C)(C)[C@@H]2C(=O)O` [Oxacillin]: the Charge in series [1] was −1. In series [3], this compound yielded an MIC wt of 2.5 µg/mL (≈ 6.23 µM).
Consider `CN(C)[C@@H]1C(O)=C(C(N)=O)C(=O)[C@@]2(O)C(O)=C3C(=O)c4c(O)cccc4[C@@](C)(O)[C@H]3[C@H](O)[C@@H]12` [Oxytetracycline], for which, in series [1], the Charge is 0. In series [3], this compound yielded an MIC wt of 0.625 µg/mL (≈ 1.36 µM).
Consider `CC[C@H](C)CCCCC(=O)N[C@@H](CCN)C(=O)N[C@H](C(=O)N[C@@H](CCN)C(=O)N[C@H]1CCNC(=O)[C@H]([C@@H](C)O)NC(=O)[C@H](CCN)NC(=O)[C@H](CCN)NC(=O)[C@H](CC(C)C)NC(=O)[C@@H](Cc2ccccc2)NC(=O)[C@H](CCN)NC1=O)[C@@H](C)O` [Polymyxin B] (X1-[Dab]T[Dab][Dab][Dab][dF]L[Dab][Dab]T; lactam 4-C (inferred); N-terminus assumed), for which, in series [1], the Charge entry is given as “+5”. Also, the “MIC ΔlysX complement” value in series [2] (24 h) is recorded as 640 µg/mL (≈ 532 µM). This compound showed an MIC wt in series [3] (24 h) of 640 µg/mL (≈ 532 µM).
With `CN[C@@H]1[C@H](O)[C@H](NC)[C@H]2O[C@@]3(O)C(=O)C[C@@H](C)O[C@H]3O[C@@H]2[C@H]1O` [Spectinomycin], the Charge result in series [1] is on record as “+1”. The “MIC ΔlysX complement” value in series [2] turned out to be 2.5 µg/mL (≈ 7.52 µM). In series [3], this compound returned an MIC wt of 2.5 µg/mL (≈ 7.52 µM).
In the case of `[H]/N=C(/N)N[C@H]1[C@H](O)[C@@H](O)[C@H](O[C@@H]2O[C@@H](C)[C@](O)(C=O)[C@H]2O[C@@H]2O[C@@H](CO)[C@H](O)[C@@H](O)[C@@H]2NC)[C@@H](N/C(N)=N\[H])[C@@H]1O` [Streptomycin], the Charge result in series [1] is “+3”. In addition, the “MIC ΔlysX complement” value in series [2] amounted to 20 µg/mL (≈ 34.4 µM). This compound also registered an MIC wt in series [3] of 20 µg/mL (≈ 34.4 µM).
With `CN(C)[C@@H]1C(O)=C(C(N)=O)C(=O)[C@@]2(O)C(O)=C3C(=O)c4c(O)cccc4[C@@](C)(O)[C@H]3C[C@@H]12` [Tetracycline], the Charge in series [1] is listed as −1. The same compound gave an MIC wt in series [3] of 0.312 µg/mL (≈ 0.702 µM).
With `CCCNC[C@]1(O)[C@H](C)O[C@@H](O[C@H]2[C@H](C)[C@@H](O[C@@H]3O[C@H](C)C[C@H](N(C)C)[C@H]3O)[C@](C)(O)C[C@@H](C)CN[C@H](C)[C@@H](O)[C@](C)(O)[C@@H](CC)OC(=O)[C@@H]2C)C[C@@]1(C)OC` [Tulathromycin], in series [1], the Charge result was “+3”. In addition, the “MIC ΔlysX complement” value in series [2] was 2.5 µg/mL (≈ 3.1 µM). The compound further registered an MIC wt in series [3] of 2.5 µg/mL (≈ 3.1 µM).
On to `CN[C@H](CC(C)C)C(=O)N[C@H]1C(=O)N[C@@H](CC(N)=O)C(=O)N[C@H]2C(=O)N[C@H]3C(=O)N[C@H](C(=O)N[C@H](C(=O)O)c4cc(O)cc(O)c4-c4cc3ccc4O)[C@H](O)c3ccc(c(Cl)c3)Oc3cc2cc(c3O[C@@H]2O[C@H](CO)[C@@H](O)[C@H](O)[C@H]2O[C@H]2C[C@](C)(N)[C@H](O)[C@H](C)O2)Oc2ccc(cc2Cl)[C@H]1O` [Vancomycin], for which the Charge result in series [1] is on record as “+1”. The MIC wt in series [3] (24 h) came out at 0.75 µg/mL (≈ 0.518 µM).
On to Nisin, for which, in series [1], the Charge entry is “+4”. Besides, the “MIC ΔlysX complement” value in series [2] worked out at 80 µg/mL. In addition, the MIC wt in series [3] was 80 µg/mL.
